Tests used:
Assay type in all cases: in vivo
[1] = test system: STEME Stellaria media (L.) Vill. (common chickweed); test: Postemergent herbicidal activity, greenhouse; conditions: foliar, 14 d
Description: (§1) Evaluation of Postemergent Herbicidal Activity. Seeds or nutlets of the desired test plant species were planted in Sun Gro Metro-Mix® 360 planting mixture, which typically has a pH of 6.0 to 6.8 and an organic matter content of about 30 percent, in plastic pots with a surface area of 64 square centimeters (cm^2). […] The plants were grown for 7-21 days (d) in a greenhouse with an approximate 15 hour (h) photoperiod which was maintained at about 23-29° C. during the day and 22-28° C. during the night. Nutrients and water were added on a regular basis and supplemental lighting was provided with overhead metal halide 1000-Watt lamps as necessary. The plants were employed for testing when they reached the first or second true leaf stage.
(§2) A weighed amount, determined by the highest rate to be tested, of each test compound was placed in a 25 milliliter (mL) glass vial and was dissolved in 4 mL of a 97:3 volume per volume (v/v) mixture of acetone and dimethyl sulfoxide (DMSO) to obtain concentrated stock solutions. […] The concentrated stock solutions obtained were diluted with 20 mL of an aqueous mixture containing acetone, water, isopropyl alcohol, DMSO, Atplus 411F crop oil concentrate, and Triton® X-155 surfactant in a 48.5:39:10:1.5:1.0:0.02 v/v ratio to obtain spray solutions containing the highest application rates. Additional application rates were obtained by serial dilution of 12 mL of the high rate solution into a solution containing 2 mL of a 97:3 v/v mixture of acetone and DMSO and 10 mL of an aqueous mixture containing acetone, water, isopropyl alcohol, DMSO, Atplus 411F crop oil concentrate, and Triton X-155 surfactant in a 48.5:39:10:1.5:1.0:0.02 v/v ratio to obtain 1/2×, 1/4×, 1/8× and 1/16× rates of the high rate. Compound requirements are based upon a 12 mL application volume at a rate of 187 liters per hectare (L/ha). Formulated compounds were applied to the plant material with an overhead Mandel track sprayer equipped with 8002E nozzles calibrated to deliver 187 L/ha over an application area of 0.503 square meters (m^2) at a spray height of 18 inches (43 cm) above the average plant canopy height. Control plants were sprayed in the same manner with the solvent blank.
(§3) Treatments consisted of the methyl ester of 4-amino-3-chloro-6-(4-chloro-2-fluoro-3-methoxyphenyl)pyridine-2-carboxylic acid (Cmpd 1) as technical grade material and propyzamide (Kerb 50 W) alone and in combination.
(§4) The treated plants and control plants were placed in a greenhouse as described above and watered by subirrigation to prevent wash-off of the test compounds. After 14 d, the condition of the test plants as compared with that of the untreated plants was determined visually and scored on a scale of 0 to 100 percent where 0 corresponds to no injury and 100 corresponds to complete kill.
(§5) Colby's equation was used to determine the herbicidal effects expected from the mixtures (Colby, S. R. Calculation of the synergistic and antagonistic response of herbicide combinations. Weeds 1967, 15, 20-22). More specifically, the following equation was used to calculate the expected activity of mixtures containing two active ingredients, A and B: Expected=A+B−(A×B/100) A=observed efficacy of active ingredient A at the same concentration as used in the mixture; B=observed efficacy of active ingredient B at the same concentration as used in the mixture.

[2] = test system: SETFA Setaria faberi Herrm. (giant foxtail); test: Postemergent herbicidal activity, greenhouse; conditions: foliar, 14 d
Description: as §1, §2, §3, §4, §5

[3] = test system: EPHHL Euphorbia heterophylla L. (wild poinsettia); test: Postemergent herbicidal activity, greenhouse; conditions: foliar, 14 d
Description: as §1, §2, §3, §4, §5

[4] = test system: BRSNW Brassica napus (winter oilseed rape); test: Postemergent herbicidal activity, greenhouse; conditions: foliar, 14 d
Description: as §1, §2, §3, §4, §5

[5] = test system: AMARE Amaranthus retroflexus L. (redroot pigweed); test: Postemergent herbicidal activity, greenhouse; conditions: foliar, 14 d
Description: as §1, §2, §3, §4, §5

[6] = test system: CHEAL Chenopodium album L. (common lambsquarters); test: Postemergent herbicidal activity, greenhouse; conditions: foliar, 14 d
Description: as §1, §2, §3, §4, §5

[7] = test system: VIOTR Viola tricolor L. (wild violet); test: Postemergent herbicidal activity, greenhouse; conditions: foliar, 14 d
Description: as §1, §2, §3, §4, §5

[8] = test system: CIRAR Cirsium arvense (L.) Scop. (Canada thistle); test: Postemergent herbicidal activity, greenhouse; conditions: foliar, 14 d
Description: as §1, §2, §3, §4, §5

[9] = test system: POLCO Polygonum convolvulus L. (wild buckwheat); test: Postemergent herbicidal activity, greenhouse; conditions: foliar, 14 d
Description: as §1, §2, §3, §4, §5

[10] = test system: ABUTH Abutilon theophrasti Medik. (velvetleaf); test: Postemergent herbicidal activity, greenhouse; conditions: foliar, 14 d
Description: as §1, §2, §3, §4, §5

[11] = test system: GLXMA Glycine max (volunteer soybean); test: Postemergent herbicidal activity, greenhouse; conditions: foliar, 14 d
Description: as §1, §2, §3, §4, §5

[12] = test system: IPOHE Ipomoea hederacea (L.) Jacq. (ivyleaf morningglory); test: Postemergent herbicidal activity, greenhouse; conditions: foliar, 14 d
Description: as §1, §2, §3, §4, §5

[13] = test system: POAAN Poa annua (annual bluegrass); test: Field trial, visual weed control in winter oilseed rape
Description: (§6) Multiple small plot research experiments were conducted to evaluate efficacy and tolerance of winter oilseed rape to compositions described herein. Typical small plots (2-4×4-10 meters (m)) were used in growers' fields under natural conditions with normal commercial cultural practices. Backpack sprayers were used to apply all treatments based on unit area. The methyl ester of formula (I) and propyzamide were tested alone and in combination at varying rates. […] Crop stage was at Growth Stage 39-50. Visual crop injury ratings were collected 32, 49, and 74 days after treatment. […] The reported values are means. […] The following abbreviations are used in Tables 2-4: • GERSS Geranium sp. (cranesbill) • POAAN Poa annua (annual bluegrass) • VERSS Veronica sp.

[14] = test system: VERSS Veronica sp. (speedwell); test: as above
Description: as §6

[15] = test system: GERSS Geranium sp. (cranesbill); test: as above
Description: as §6

winter oilseed rape = test: Field trial, visual crop injury ratings; conditions: varying rates, crop Growth Stage 39-50, 32, 49, and 74 days after treatment, in each case
Description: Multiple small plot research experiments were conducted to evaluate efficacy and tolerance of winter oilseed rape to compositions described herein. Typical small plots (2-4×4-10 meters (m)) were used in growers' fields under natural conditions with normal commercial cultural practices. Backpack sprayers were used to apply all treatments based on unit area. The methyl ester of formula (I) and propyzamide were tested alone and in combination at varying rates. Application water volume was 150 L/ha. Crop stage was at Growth Stage 39-50. Visual crop injury ratings were collected 32, 49, and 74 days after treatment. […] The reported values are means.

[16] = Propyzamide 250 g ai/ha, 32 DAAA
[17] = Propyzamide 250 g ai/ha, 58 DAAA
[18] = Propyzamide 250 g ai/ha, 80 DAAA
[19] = Propyzamide 500 g ai/ha, 32 DAAA
[20] = Propyzamide 500 g ai/ha, 58 DAAA
[21] = Propyzamide 500 g ai/ha, 80 DAAA
[22] = Propyzamide 750 g ai/ha, 32 DAAA
[23] = Propyzamide 750 g ai/ha, 58 DAAA
[24] = Propyzamide 750 g ai/ha, 80 DAAA

## C#CC(C)(C)NC(=O)c1cc(Cl)cc(Cl)c1 [Propyzamide, 3,5-dichloro-N-(1,1-dimethylpropynyl)benzamide]
[1]; Propyzamide 285 g ai/ha
  % control rated visually, ob (observed): 7%
[1]; Propyzamide 570 g ai/ha
  % control rated visually, ob (observed): 75%
[2]; Propyzamide 285 g ai/ha
  % control rated visually, ob (observed): 0%
[2]; Propyzamide 570 g ai/ha
  % control rated visually, ob (observed): 0%
[3]; Propyzamide 285 g ai/ha
  % control rated visually, ob (observed): 0%
[3]; Propyzamide 570 g ai/ha
  % control rated visually, ob (observed): 0%
[4]; Propyzamide 285 g ai/ha
  % control rated visually, ob (observed): 5%
[4]; Propyzamide 570 g ai/ha
  % control rated visually, ob (observed): 20%
[5]; Propyzamide 285 g ai/ha
  % control rated visually, ob (observed): 0%
[5]; Propyzamide 570 g ai/ha
  % control rated visually, ob (observed): 10%
[6]; Propyzamide 285 g ai/ha
  % control rated visually, ob (observed): 0%
[6]; Propyzamide 570 g ai/ha
  % control rated visually, ob (observed): 0%
[7]; Propyzamide 285 g ai/ha
  % control rated visually, ob (observed): 0%
[7]; Propyzamide 570 g ai/ha
  % control rated visually, ob (observed): 0%
[8]; Propyzamide 285 g ai/ha
  % control rated visually, ob (observed): 0%
[8]; Propyzamide 570 g ai/ha
  % control rated visually, ob (observed): 0%
[9]; Propyzamide 285 g ai/ha
  % control rated visually, ob (observed): 5%
[9]; Propyzamide 570 g ai/ha
  % control rated visually, ob (observed): 15%
[10]; Propyzamide 285 g ai/ha
  % control rated visually, ob (observed): 5%
[10]; Propyzamide 570 g ai/ha
  % control rated visually, ob (observed): 0%
[11]; Propyzamide 285 g ai/ha
  % control rated visually, ob (observed): 10%
[11]; Propyzamide 570 g ai/ha
  % control rated visually, ob (observed): 15%
[12]; Propyzamide 285 g ai/ha
  % control rated visually, ob (observed): 10%
[12]; Propyzamide 570 g ai/ha
  % control rated visually, ob (observed): 17%
[13]; [16]
  % control rated visually, ob (observed): 12.5%
[13]; [17]
  % control rated visually, ob (observed): 12.5%
[13]; [18]
  % control rated visually, ob (observed): 45.0%
[13]; [19]
  % control rated visually, ob (observed): 15.0%
[13]; [20]
  % control rated visually, ob (observed): 67.5%
[13]; [21]
  % control rated visually, ob (observed): 95.0%
[13]; [22]
  % control rated visually, ob (observed): 37.5%
[13]; [23]
  % control rated visually, ob (observed): 92.5%
[13]; [24]
  % control rated visually, ob (observed): 98.3%
[14]; [16]
  % control rated visually, ob (observed): 43.8%
[14]; [18]
  % control rated visually, ob (observed): 100.0%
[14]; [19]
  % control rated visually, ob (observed): 60.0%
[14]; [21]
  % control rated visually, ob (observed): 100.0%
[14]; [22]
  % control rated visually, ob (observed): 54.3%
[14]; [24]
  % control rated visually, ob (observed): 100.0%
[15]; [16]
  % control rated visually, ob (observed): 5.0%
[15]; [17]
  % control rated visually, ob (observed): 17.5%
[15]; [18]
  % control rated visually, ob (observed): 22.5%
[15]; [19]
  % control rated visually, ob (observed): 20.0%
[15]; [20]
  % control rated visually, ob (observed): 35.0%
[15]; [21]
  % control rated visually, ob (observed): 28.8%
[15]; [22]
  % control rated visually, ob (observed): 18.8%
[15]; [23]
  % control rated visually, ob (observed): 25.0%
[15]; [24]
  % control rated visually, ob (observed): 33.8%
Winter oilseed rape
  Visual crop injury rating: 0 % injury

Reference: patent US9730446B2, “Herbicidal compositions comprising 4-amino-3-chloro-6-(4-chloro-2-fluoro-3-methoxyphenyl)pyridine-2-carboxylic acid or a derivative thereof and propyzamide” (Dow AgroSciences LLC, priority 2013, dated 2017)
